Literature values as cited in patent publication US20070224216A1, “Methods and Compositions Related to Antiviral Therapy Using Algae and Cyanobacteria” (priority 2004, published 2007).

**Q.** Which “toxicity to uninfected cells” value (uninfected cells) does the source give for calcium spirulan here?
**A.** No toxicity

**Q.** What does the source list for heparin [oral heparins]?
**A.** plasma concentrations after oral administration (rat, in vivo, po): less than 1%; thrombosis in the rat jugular vein model (rats, oral): reduction of thrombosis
